Data published in publication PMC2390898 (Antiviral Research, 2006).
Like-named read-outs stand apart in the source and are kept apart here.

Key:
RTA [1] = type: cell-based, Kaposi's sarcoma-associated herpesvirus (KSHV)
RTA [2] = type: cell-based, Kaposi's sarcoma-associated herpesvirus (KSHV); remark: listed apart in the source
RTA [3] = type: cell-based, Kaposi's sarcoma-associated herpesvirus (KSHV); remark: listed apart in the source
RTA [4] = type: cell-based, Kaposi's sarcoma-associated herpesvirus (KSHV); remark: listed apart in the source
LANA = type: cell-based, Kaposi's sarcoma-associated herpesvirus (KSHV)
BCBL-1 cells [5] = conditions: for relative percentage of fluorescence intensity (cell viability): 1 h
[6] = system: ORF50 leader sequence (RP1 P-PMO target region)-luciferase RNA; type: biochemical, Kaposi's sarcoma-associated herpesvirus (KSHV)
LP1/luciferase RNA = assay: Cell-free reporter assay with LP1/luciferase RNA; type: biochemical, Kaposi's sarcoma-associated herpesvirus (KSHV); conditions: data not shown
BCBL-1 cells [7] = assay: PMO/P-PMO uptake and persistence in BCBL-1 cells; type: cell-based
KSHV = type: cell-based, Kaposi's sarcoma-associated herpesvirus (KSHV)

Question: With CC(=O)N1C[C@@H](COP(=O)(N(C)C)N2C[C@@H](COP(=O)(N(C)C)N3C[C@@H](COP(=O)(N(C)C)N4C[C@@H](COP(=O)(N(C)C)N5C[C@@H](COP(=O)(N(C)C)N6C[C@@H](COP(=O)(N(C)C)N7C[C@@H](COP(=O)(N(C)C)N8C[C@@H](COP(=O)(N(C)C)N9C[C@@H](COP(=O)(N(C)C)N%10C[C@@H](COP(=O)(N(C)C)N%11C[C@@H](COP(=O)(N(C)C)N%12C[C@@H](COP(=O)(N(C)C)N%13C[C@@H](COP(=O)(N(C)C)N%14C[C@@H](COP(=O)(N(C)C)N%15C[C@@H](COP(=O)(N(C)C)N%16C[C@@H](COP(=O)(N(C)C)N%17C[C@@H](COP(=O)(N(C)C)N%18C[C@@H](COP(=O)(N(C)C)N%19C[C@@H](COP(=O)(N(C)C)N%20C[C@@H](COP(=O)(N(C)C)N%21CCN(C(=O)CCCN%22C(=O)CC(SC[C@H](NC(=O)[C@H](CCCNC(=N)N)NC(=O)[C@H](CCCNC(=N)N)NC(=O)[C@H](CCCNC(=N)N)NC(=O)[C@H](CCCNC(=N)N)NC(=O)[C@H](Cc%23ccccc%23)NC(=O)[C@H](Cc%23ccccc%23)NC(=O)[C@H](CCCNC(=N)N)NC(=O)[C@H](CCCNC(=N)N)NC(=O)[C@H](CCCNC(=N)N)NC(=O)[C@H](CCCNC(=N)N)NC(=O)[C@@H](N)CCCNC(=N)N)C(N)=O)C%22=O)CC%21)O[C@@H](n%21cnc%22c(=O)[nH]c(N)nc%22%21)C%20)O[C@@H](n%20cnc%21c(N)ncnc%21%20)C%19)O[C@@H](n%19cc(C)c(=O)[nH]c%19=O)C%18)O[C@@H](n%18cnc%19c(N)ncnc%19%18)C%17)O[C@@H](n%17cc(C)c(=O)[nH]c%17=O)C%16)O[C@@H](n%16cnc%17c(N)ncnc%17%16)C%15)O[C@@H](n%15ccc(N)nc%15=O)C%14)O[C@@H](n%14cnc%15c(N)ncnc%15%14)C%13)O[C@@H](n%13ccc(N)nc%13=O)C%12)O[C@@H](n%12cnc%13c(N)ncnc%13%12)C%11)O[C@@H](n%11cnc%12c(N)ncnc%12%11)C%10)O[C@@H](n%10ccc(N)nc%10=O)C9)O[C@@H](n9cnc%10c(N)ncnc%109)C8)O[C@@H](n8ccc(N)nc8=O)C7)O[C@@H](n7ccc(N)nc7=O)C6)O[C@@H](n6ccc(N)nc6=O)C5)O[C@@H](n5cnc6c(N)ncnc65)C4)O[C@@H](n4cnc5c(N)ncnc54)C3)O[C@@H](n3cc(C)c(=O)[nH]c3=O)C2)O[C@@H](n2cc(C)c(=O)[nH]c2=O)C1 (stereo partly drawn) [CP1] as the compound, how does the “RTA-positive cells by IFA” value (RTA [1]) read?
Answer: approximately 20%

Question: And the “number of RTA-positive cells by IFA in BC-1 cells” value (RTA [2])?
Answer: no effect

Question: And the “change in RTA expression by Western blot” value (RTA [3])?
Answer: no detectable change

Question: And the “RTA flow cytometry profile” value (RTA [4])?
Answer: same profile as the mock treatment control

Question: And the “LANA staining by IFA after three treatments” value (LANA)?
Answer: no detectable effect

Question: And the cytotoxicity (BCBL-1 cells [5])?
Answer: no detectable cytotoxicity

Question: And the “relative percentage of fluorescence intensity (cell viability)” value (BCBL-1 cells [5]; 8 μM)?
Answer: 106%

Question: And the “relative percentage of fluorescence intensity (cell viability)” value (BCBL-1 cells [5]; 16 μM)?
Answer: 107%

Question: With H-RRRRRFFRRRRC-NH2 [mRP1] as the compound, how does the “change in RTA expression by Western blot” value (RTA [3]) read?
Answer: no effect

Question: How did the “effect on luciferase translation (negative control P-PMO)” value [6] turn out when H-RRRRRFFRRRRC-NH2 [LP1] was run?
Answer: did not have any effect

Question: And the “inhibition of translation in LP1/luciferase reporter system” value (LP1/luciferase RNA)?
Answer: effective at inhibiting translation

Question: What about the “change in LANA level, recurrent application” value (LANA) of the same compound?
Answer: no change

Question: What about the “effect on LANA expression, single application (IFA and Western blot)” value (LANA) of the same compound?
Answer: no effect

Question: How did the “LANA protein level (IFA and Western blot)” value (LANA) turn out when H-RRRRRFFRRRRC-NH2 [LP2] was run?
Answer: caused reduction

Question: And the “LANA staining by IFA after three treatments” value (LANA)?
Answer: much weaker

Question: What about the “reduction in LANA protein level after the second application” value (LANA) of the same compound?
Answer: over 60%

Question: With H-RRRRRFFRRRRC-NH2 [P-PMO-F1] as the compound, how does the “cells with green fluorescence at 24, 48 and 72 h (fluorescence microscopy)” value (BCBL-1 cells [7]; BCBL-1 cells treated 4 h with 8 μM, rinsed, harvested 24, 48 and 72 h later) read?
Answer: almost all cells

Question: What about the “cells with green fluorescence at 24, 48 and 72 h (flow cytometry)” value (BCBL-1 cells [7]; BCBL-1 cells treated 4 h with 8 μM, rinsed, harvested 24, 48 and 72 h later, all three time points) of the same compound?
Answer: over 95%

Question: And the “fluorescence of cells by flow cytometry” value (BCBL-1 cells [7]; BCBL-1 cells, 8 μM, treated for 4 h, flow cytometry, 525 nm band pass filter)?
Answer: high percentage

Question: What about the “green fluorescence in treated cells at day 7” value (BCBL-1 cells [7]; BCBL-1 cells, day 7 after treatment, reduced intensity, data not shown) of the same compound?
Answer: still observed

Question: For “tetradecanoyl phorbol acetate [TPA, reference compound]”, which “RTA-positive cells by IFA after TPA induction, no P-PMO” value (RTA [1]) is on record?
Answer: approximately 20%

Question: What about the “RTA-positive cells by flow cytometry after TPA induction, no P-PMO” value (RTA [4]) of the same compound?
Answer: approximately 25%

Question: And the “increase of KSHV viral DNA level by TPA induction, in cells” value (KSHV)?
Answer: 1.84 fold

Question: What about the “increase of KSHV viral DNA level by TPA induction, in culture supernatant” value (KSHV) of the same compound?
Answer: 2.75 fold
